Reference: the NIST ThermoML archive (doi:10.1021/je100083w)

Conditions: Liquid, Bellows volumetry

O [water]
Conditions | specific volume [m3/kg]
273.67 K, 199000 kPa | 0.0009252
273.68 K, 348800 kPa | 0.0008889
273.74 K, 298900 kPa | 0.0009003
273.82 K, 350400 kPa | 0.0008893
283.33 K, 199000 kPa | 0.000928
283.36 K, 69000 kPa | 0.0009704
283.39 K, 298700 kPa | 0.0009035
283.43 K, 249000 kPa | 0.000915
283.43 K, 349100 kPa | 0.0008928
283.47 K, 199000 kPa | 0.0009281
283.48 K, 149100 kPa | 0.0009425
283.49 K, 149300 kPa | 0.0009423
283.5 K, 69200 kPa | 0.0009702
283.5 K, 248900 kPa | 0.0009152
283.51 K, 98900 kPa | 0.0009592
283.51 K, 99000 kPa | 0.0009591
283.52 K, 148800 kPa | 0.0009426
283.53 K, 198900 kPa | 0.000928
283.54 K, 69000 kPa | 0.0009703
283.54 K, 249100 kPa | 0.0009148
283.56 K, 299300 kPa | 0.0009032
283.6 K, 299000 kPa | 0.0009038
283.62 K, 349300 kPa | 0.0008926
283.7 K, 99000 kPa | 0.0009592
283.72 K, 348000 kPa | 0.0008941
293.2 K, 249000 kPa | 0.0009188
293.22 K, 299000 kPa | 0.0009073
293.23 K, 149200 kPa | 0.0009458
293.25 K, 199000 kPa | 0.0009316
293.28 K, 99300 kPa | 0.0009619
293.31 K, 349200 kPa | 0.000897
293.34 K, 349300 kPa | 0.0008968
293.35 K, 69300 kPa | 0.0009728
293.38 K, 299400 kPa | 0.0009073
293.39 K, 199400 kPa | 0.0009315
293.39 K, 249000 kPa | 0.0009189
293.4 K, 99100 kPa | 0.000962
293.41 K, 149100 kPa | 0.0009458
293.42 K, 68900 kPa | 0.0009729
293.46 K, 199100 kPa | 0.0009322
293.47 K, 99200 kPa | 0.0009625
293.49 K, 148800 kPa | 0.0009465
293.5 K, 100 kPa | 0.001002
293.52 K, 248900 kPa | 0.0009196
293.53 K, 100 kPa | 0.001002
293.53 K, 349200 kPa | 0.0008974
293.54 K, 299000 kPa | 0.000908
293.55 K, 100 kPa | 0.001002
293.6 K, 69200 kPa | 0.0009732
303.35 K, 98500 kPa | 0.0009655
303.37 K, 69200 kPa | 0.0009758
303.4 K, 98900 kPa | 0.0009651
303.4 K, 148900 kPa | 0.000949
303.41 K, 198900 kPa | 0.0009347
303.42 K, 68900 kPa | 0.0009761
303.42 K, 69800 kPa | 0.0009757
303.43 K, 248900 kPa | 0.000922
303.48 K, 99200 kPa | 0.0009653
303.48 K, 149000 kPa | 0.0009492
303.49 K, 299100 kPa | 0.0009104
303.51 K, 149100 kPa | 0.0009494
303.52 K, 349300 kPa | 0.0008999
303.55 K, 299100 kPa | 0.000911
303.56 K, 199000 kPa | 0.000935
303.57 K, 198800 kPa | 0.0009353
303.57 K, 248800 kPa | 0.0009226
303.57 K, 249300 kPa | 0.0009222
303.61 K, 299200 kPa | 0.0009108
303.63 K, 349200 kPa | 0.0009004
303.72 K, 349100 kPa | 0.0009003
313.38 K, 149300 kPa | 0.0009528
313.38 K, 349300 kPa | 0.0009051
313.39 K, 69100 kPa | 0.0009801
313.39 K, 98800 kPa | 0.000969
313.39 K, 148800 kPa | 0.0009534
313.4 K, 69100 kPa | 0.0009799
313.4 K, 98600 kPa | 0.0009695
313.4 K, 199200 kPa | 0.0009386
313.41 K, 99000 kPa | 0.0009696
313.42 K, 149000 kPa | 0.0009538
313.42 K, 198900 kPa | 0.0009393
313.43 K, 69000 kPa | 0.0009796
313.44 K, 249300 kPa | 0.0009265
313.44 K, 299600 kPa | 0.0009155
313.44 K, 348900 kPa | 0.000904
313.45 K, 248900 kPa | 0.0009271
313.46 K, 199100 kPa | 0.0009397
313.46 K, 249200 kPa | 0.0009259
313.46 K, 299400 kPa | 0.0009151
313.46 K, 349500 kPa | 0.0009046
313.48 K, 299700 kPa | 0.0009144
323.04 K, 248700 kPa | 0.0009318
323.09 K, 198800 kPa | 0.0009435
323.13 K, 299200 kPa | 0.0009196
323.17 K, 249000 kPa | 0.0009307
323.17 K, 349400 kPa | 0.0009091
323.19 K, 299100 kPa | 0.0009191
323.21 K, 349000 kPa | 0.0009095
323.25 K, 248900 kPa | 0.0009312
323.26 K, 298400 kPa | 0.0009203
323.28 K, 199000 kPa | 0.0009438
323.3 K, 149300 kPa | 0.0009578
323.31 K, 99100 kPa | 0.0009737
323.33 K, 69200 kPa | 0.0009842
323.34 K, 198300 kPa | 0.0009446
323.34 K, 349300 kPa | 0.0009085
323.35 K, 68300 kPa | 0.0009846
323.35 K, 149000 kPa | 0.0009578
323.37 K, 99600 kPa | 0.0009736
323.41 K, 149200 kPa | 0.0009584
323.43 K, 99200 kPa | 0.0009742
323.46 K, 68800 kPa | 0.0009848
